The test system of assay [1] is secretion of ApoB by HepG2 cells. The experiment in a line: ApoB secretion inhibition assay in HepG2 cells (ApoB ELISA). The class given is cell-based, human. How it is done: The ability of the compounds of the present invention to inhibit the secretion of ApoB can be determined using the following cell-based assay, which measures the secretion of ApoB by HepG2 cells. ApoB has two possible metabolic fates: entrance into the lipoprotein assembly pathway within the lumen of the endoplasmic reticulum (ER), or degradation in the cytoplasm by the ubiquitin-dependent proteasome. The destiny of ApoB is determined by the relative availability of individual lipids, which is controlled by MTP (Davis, Biochim. Biophys. Acta, 1999, 1440, 1-31).
HepG2 cells (ATCC, HB-8065) are seeded in 96-well plates in DMEM with 10% FBS+pen/strep at a density of 1×10^5 cells/well (100 μl /well). Twenty-four hours after seeding, the plate is aspirated and the media changed to DMEM with 1% BSA and pen/strep, and the cells are serum-starved for 24 hours. After 24 hour serum-starvation, the plate is aspirated again and the cells are then treated for 24 hours with or without compound in DMEM with 1% BSA, 0.3 mM OA (OA complexed to BSA at a 2:1 ratio) and pen/strep. The final concentration of DMSO in the assay (from compound and control) is 0.1%. After 24 hour treatment, conditioned media is collected in an empty 96-well plate.
Cellular viability is measured using the cell permeable dye, AlamarBlue™. This dye undergoes electron reduction in viable cells but not dead cells. The reduced dye product gives a fluorescent signal which can be monitored with a fluorescence plate reader (excitation 545 nm and emission 575 nm). The amount of fluorescence generated in a given well is proportional to the number of viable cells. After collection, the 96-well plate is re-fed with 100 μl media (DMEM with 10% FBS) and 10 μl Alamar Blue™ per well, incubated for 2 hours and then read in a fluorescence plate reader.
ApoB secretion from HepG2 cells is quantitated by testing the conditioned media at […] using an ApoB ELISA kit (ALerCHEK) according to the manufacturer's instructions. The ELISA assay for ApoB is performed as follows: a polyclonal antibody against human ApoB (Chemicon) is diluted 1:1000 in carbonate-bicarbonate buffer and 100 μl are added to each well of a 96-well plate (NUNC). After 5 hours incubation at room temperature, the antibody solution is removed and wells are washed four times with PBS/0.05% TweenD 20 (Cayman Chemical Co.). Non-specific sites on the plastic plate are blocked by incubating wells for 1 to 1.5 hours in a solution of 0.5% BSA and 0.1% TweenD 20 made in PBS. One hundred microliters of a 1:20 dilution of growth medium from the HepG2 cells (made in 0.004% TweenD 20/1% BSA in PBS) is added to each well and incubated for 3 hours at room temperature. Wells are aspirated and washed four times (0.05% TweenD 20 in PBS) prior to adding 100 μl of a 1:1000 dilution (5 μg/ml) of the secondary antibody, mouse anti-human ApoB (Chemicon). After 2 hours incubation at room temperature, this solution is aspirated and the wells are again washed 4 times as above. One hundred microliters of peroxidase-conjugated affinity purified goat anti-mouse IgG (H+L) (Jackson ImmunoResearch Laboratories) (1:10,000 dilution in PBS/1% BSA/0.1% TweenD 20) is then added to each well and incubated for 1 hour at room temperature. After aspirating, the wells are washed 4 times as above and 50 μl of 1-step Ultra TMB ELISA reagent (Pierce) is added to each well and incubated for 5 minutes. The reaction is stopped by the addition of 50 μl of 2 NH2SO4 and absorbance of each well is read at 450 nm.
Background: In an ELISA, binding on a coated surface is turned into a signal by an enzyme label.

For the next assay, the target named is MTP (Homo sapiens, UniProt P55157). Briefly: In vitro inhibition of MTP, triacylglycerol transfer assay with donor and acceptor liposomes (fluorescence). The class given is biochemical. How it is done:
This assay is commercially available (Cat. #D400, Chylos Inc., New York). Liposomes are pipetted in 5 μl aliquots into the wells of a black fluorescence microtiter plate, followed by addition of 5 μl of water and an incubation of 2-5 min to allow the samples to equilibrate to rt. Next, 5 μl of compound dissolved in DMSO is added to the vesicles. The reaction is initated by the addition of 5 μl MTP, followed by incubation for 30 min at room temperature. […] Time of incubation can be increased to measure low activity in different samples. In such situations, samples are prepared just prior to measuring fluorescence units. For this purpose, isopropanol is added to substrate vesicles about 5 min prior to fluorescence measurement as the fluorescence readings in isopropanol decrease with time.

[2] abbreviates: Homo sapiens, HepG2, Table 6, assay of Example 2, read-out: IC50 ApoB Assay.
[3] abbreviates: Table 6, assay of Example 3, read-out: IC50 Enzyme Assay.

Several values for one entry are separate records, joined by “and”; a condition that tells them apart may be missing. Identical values can stand only once. Counter-ions that a name gives are not always drawn. Like-named read-outs stand apart in the source and are kept apart here.

Sequence of MTP (P55157 19-894, species assumed): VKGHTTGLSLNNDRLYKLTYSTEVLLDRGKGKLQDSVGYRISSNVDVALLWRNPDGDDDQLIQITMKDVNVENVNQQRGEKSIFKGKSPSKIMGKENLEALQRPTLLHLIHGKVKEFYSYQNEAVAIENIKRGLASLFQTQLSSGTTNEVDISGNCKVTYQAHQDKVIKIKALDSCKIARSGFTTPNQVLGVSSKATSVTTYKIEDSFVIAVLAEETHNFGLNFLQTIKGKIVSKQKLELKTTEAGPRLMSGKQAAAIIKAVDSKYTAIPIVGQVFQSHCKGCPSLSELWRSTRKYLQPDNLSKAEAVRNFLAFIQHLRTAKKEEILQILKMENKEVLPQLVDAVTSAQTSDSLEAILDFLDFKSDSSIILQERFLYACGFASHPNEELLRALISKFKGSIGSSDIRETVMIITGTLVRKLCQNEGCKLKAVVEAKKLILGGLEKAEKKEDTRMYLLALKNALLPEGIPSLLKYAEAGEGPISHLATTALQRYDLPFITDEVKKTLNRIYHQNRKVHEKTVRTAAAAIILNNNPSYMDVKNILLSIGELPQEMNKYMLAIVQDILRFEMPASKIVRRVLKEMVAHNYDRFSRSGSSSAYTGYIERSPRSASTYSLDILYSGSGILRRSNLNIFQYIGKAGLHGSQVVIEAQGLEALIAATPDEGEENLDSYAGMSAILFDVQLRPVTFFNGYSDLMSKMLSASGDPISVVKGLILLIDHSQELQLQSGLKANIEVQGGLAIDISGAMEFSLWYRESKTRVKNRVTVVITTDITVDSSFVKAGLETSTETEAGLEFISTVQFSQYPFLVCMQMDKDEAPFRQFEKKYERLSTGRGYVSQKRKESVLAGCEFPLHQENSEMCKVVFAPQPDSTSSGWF
Sequence of MTP (P07237 18-508 partner, species assumed): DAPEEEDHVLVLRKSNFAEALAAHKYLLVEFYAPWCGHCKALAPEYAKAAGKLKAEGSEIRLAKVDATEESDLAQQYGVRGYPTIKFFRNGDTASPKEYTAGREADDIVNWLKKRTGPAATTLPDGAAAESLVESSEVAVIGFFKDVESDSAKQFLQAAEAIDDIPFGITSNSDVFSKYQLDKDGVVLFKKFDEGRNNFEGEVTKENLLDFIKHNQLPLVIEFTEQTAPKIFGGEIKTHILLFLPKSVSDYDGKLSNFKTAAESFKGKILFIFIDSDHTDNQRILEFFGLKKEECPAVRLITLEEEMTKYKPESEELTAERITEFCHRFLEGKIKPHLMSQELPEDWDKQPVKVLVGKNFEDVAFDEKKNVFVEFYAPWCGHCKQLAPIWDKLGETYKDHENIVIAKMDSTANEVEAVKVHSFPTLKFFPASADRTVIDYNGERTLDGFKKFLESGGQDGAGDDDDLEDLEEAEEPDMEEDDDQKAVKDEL

Take `CN(Cc1ccc(F)cc1)C(=O)[C@@H](NC(=O)c1nc2ccc(NC(=O)c3ccccc3-c3ccc(C(C)(C)C)cc3)cc2s1)c1ccccc1` (single isomer, unassigned): the IC50 in assay [1] (Homo sapiens, HepG2, Tables 2-5, second symbol of the cell, read-out: IC50 Apo B Secretion Assay (Example 2)) is less than 100 nM; at MTP (Tables 2-5, first symbol of the cell, read-out: IC50 Tri-acylglycerol (TAG) Transfer Assay (Example 3)), less than 100 nM.
`CN(Cc1ccc(F)cc1)C(=O)[C@@H](NC(=O)c1ccc2nc(NC(=O)c3ccccc3C3CCNCC3)ccc2c1)c1ccccc1` [Compound 1, (S)—N-(2-((4-fluorobenzyl)(methyl)amino)-2-oxo-1-phenylethyl)-2-(2-(piperidin-4-yl)benzamido)quinoline-6-carboxamide hydrochloride]: the figures for the IC50 (in assay [1] (setting [2]); at MTP (setting [3])) were 6000 nM and more than 1000 nM, respectively.
In the case of `CN(Cc1ccc(F)cc1)C(=O)[C@@H](NC(=O)c1ccc2nc(NC(=O)c3ccccc3C3CCNC3)ccc2c1)c1ccccc1` (stereo partly drawn) [Compound 2, N—((S)-2-((4-fluorobenzyl)(methyl)amino)-2-oxo-1-phenylethyl)-2-(2-(pyrrolidin-3-yl)benzamido)quinoline-6-carboxamide hydrochloride], the 50% inhibitory concentration (IC50) was determined as 3500 nM in assay [1] (setting [2]) and 530 nM on MTP (setting [3]).
As for `CN(Cc1ccc(F)cc1)C(=O)[C@@H](NC(=O)c1ccc2nc(NC(=O)c3ccccc3-c3cn4ccsc4n3)ccc2c1)c1ccccc1` [Compound 3, (S)—N-(2-((4-fluorobenzyl)(methyl)amino)-2-oxo-1-phenylethyl)-2-(2-(imidazo[2,1-b]thiazol-6-yl)benzamido)quinoline-6-carboxamide], the figures for the IC50 (in assay [1] (setting [2]); at MTP (setting [3])) were 8 nM and 10.9 nM, respectively.
`CN(Cc1ccc(F)cc1)C(=O)[C@@H](NC(=O)c1nc2ccc(NC(=O)c3ccccc3-c3ccc(C(C)(C)C)cc3)cc2s1)c1ccccc1` [Compound 4, (S)-6-(4′-tert-butylbiphenyl-2-ylcarboxamido)-N-(2-((4-fluorobenzyl)(methyl)amino)-2-oxo-1-phenylethyl)benzo[d]thiazole-2-carboxamide]: the half-inhibitory concentration (IC50) was 3 nM in assay [1] (setting [2]); 13.9 nM and 3 nM at MTP (setting [3]).
`CCCCN(C)C(=O)[C@@H](NC(=O)c1nc2ccc(NC(=O)c3ccccc3-c3ccc(C(C)(C)C)cc3)cc2s1)c1ccccc1` [Compound 5]: the IC50 in assay [1] (setting [2]) is 6.5 nM; at MTP (setting [3]), 9.5 nM.
Consider `CC(C)(C)c1ccc(-c2ccccc2C(=O)Nc2ccc3nc(C(=O)N[C@H](C(=O)N4CCCC4)c4ccccc4)sc3c2)cc1` [Compound 7], for which the figures for the concentration for half-maximal inhibition (IC50) (in assay [1] (setting [2]); at MTP (setting [3])) were 1 nM and 2.6 nM, respectively.
In the same order, the values of `CCCCCNC(=O)[C@@H](NC(=O)c1nc2ccc(NC(=O)c3ccccc3-c3ccc(C(C)(C)C)cc3)cc2s1)c1ccccc1` [Compound 8] are 3.1 nM and 8.4 nM.
Consider `CN(Cc1ccc(F)cc1)C(=O)[C@@H](NC(=O)C12CCC(CNC(=O)c3ccccc3-c3ccc(C(C)(C)C)cc3)(CC1)CC2)c1ccccc1` [Compound 10, (S)-4-((4′-tert-butylbiphenyl-2-ylcarboxamido)methyl)-N-(2-((4-fluorobenzyl)(methyl)amino)-2-oxo-1-phenylethyl)bicyclo[2.2.2]octane-1-carboxamide], for which the values for the 50% inhibitory concentration (IC50) (in assay [1] (setting [2]); at MTP (setting [3])) were 54 nM and 33 nM, respectively.
Regarding `Cc1cccc(C(=O)Nc2nc(-c3ccc(C(=O)N[C@H](C(=O)N(C)C(C)C)c4ccccc4)cc3)cs2)c1-c1ccc(C(C)C)cc1` [Compound 98], the IC50 in assay [1] (setting [2]) came to 49.7 nM.
As for `CC(C)c1ccc(-c2ccccc2C(=O)Nc2nc(-c3ccc(C(=O)N[C@H](C(=O)N(C)C(C)C)c4ccccc4)cc3)cs2)cc1` [Compound 99], the half-maximal inhibitory concentration (IC50) in assay [1] (setting [2]) came to 121 nM.
On the same count and under the same terms, as for `CC(C)(C)c1csc(-c2ccccc2C(=O)NCC23CCC(C(=O)N[C@H](C(=O)N4CCCC4)c4ccccc4)(CC2)CC3)n1` [Compound 100], the figure is 112 nM.
`CCCCN(C)C(=O)[C@@H](NC(=O)C12CCC(NC(=O)c3ccccc3-c3ccc(C(C)(C)C)cc3)(CC1)CC2)c1ccccc1` [Compound 101]: the IC50 in assay [1] (setting [2]) was 11.7 nM.
With `CC(C)CN(C)C(=O)[C@@H](NC(=O)C12CCC(NC(=O)c3ccccc3-c3ccc(C(C)(C)C)cc3)(CC1)CC2)c1ccccc1` [Compound 102], the half-maximal inhibitory concentration (IC50) in assay [1] (setting [2]) stood at 34.1 nM.
For `CCCCN(C)C(=O)[C@@H](NC(=O)C12CCC(NC(=O)c3ccccc3-c3ccc(C(C)C)cc3)(CC1)CC2)c1ccccc1` [Compound 103], in assay [1] (setting [2]), the concentration for half-maximal inhibition (IC50) was 26.1 nM.
Regarding `CC(C)c1ccc(-c2ccccc2C(=O)NC23CCC(C(=O)N[C@H](C(=O)N4CCCC4)c4ccccc4)(CC2)CC3)cc1` [Compound 104], the IC50 in assay [1] (setting [2]) stood at 3.5 nM.
As for `CC(C)c1ccc(-c2ccccc2C(=O)NC23CCC(C(=O)N[C@H](C(=O)N(C)Cc4ccc(F)cc4)c4ccccc4)(CC2)CC3)cc1` [Compound 105], in assay [1] (setting [2]), the IC50 came to 13.4 nM.
On the same count and under the same terms, in the case of `CC(C)CN(C)C(=O)[C@@H](NC(=O)C12CCC(NC(=O)c3ccccc3-c3ccc(C(C)C)cc3)(CC1)CC2)c1ccccc1` [Compound 106] it was 40.2 nM.
For the compound `Cc1cccc(C(=O)NC23CCC(C(=O)N[C@H](C(=O)N4CCCC4)c4ccccc4)(CC2)CC3)c1-c1ccc(C(C)(C)C)cc1` [Compound 107], the IC50 in assay [1] (setting [2]) is 1.7 nM; in assay [1] (Table 6, assay of Example 2, read-out: IC50 ApoB Assay), 1.5 nM.
Regarding `Cc1cccc(C(=O)NC23CCC(C(=O)N[C@H](C(=O)N(C)Cc4ccc(F)cc4)c4ccccc4)(CC2)CC3)c1-c1ccc(C(C)(C)C)cc1` [Compound 108], in assay [1] (setting [2]), the IC50 was 1.2 nM.
`COc1cccc(C(=O)NC23CCC(C(=O)N[C@H](C(=O)N4CCCC4)c4ccccc4)(CC2)CC3)c1-c1ccc(C(C)(C)C)cc1` [Compound 109]: the IC50 in assay [1] (setting [2]) stood at 8.2 nM.
Turning to `COc1cccc(C(=O)NC23CCC(C(=O)N[C@H](C(=O)N(C)Cc4ccc(F)cc4)c4ccccc4)(CC2)CC3)c1-c1ccc(C(C)(C)C)cc1` [Compound 110], the IC50 in assay [1] (setting [2]) turned out to be 14.6 nM.
Still for that read-out and setting: in the case of `COc1cccc(C(=O)NC23CCC(C(=O)N[C@H](C(=O)N(C)Cc4ccc(F)cc4)c4ccccc4)(CC2)CC3)c1-c1ccc(C(C)C)cc1` [Compound 111] it was 110 nM; in that of `Cc1cccc(C(=O)NC23CCC(C(=O)N[C@H](C(=O)N4CCCC4)c4ccccc4)(CC2)CC3)c1-c1ccc(C(C)C)cc1` [Compound 113], 4.4 nM; in that of `Cc1cccc(C(=O)NC23CCC(C(=O)N[C@H](C(=O)N(C)Cc4ccc(F)cc4)c4ccccc4)(CC2)CC3)c1-c1ccc(C(C)C)cc1` [Compound 114], 3.5 nM.
On to `CCCCN(C)C(=O)[C@@H](NC(=O)C12CCC(NC(=O)c3cccc(OC)c3-c3ccc(C(C)C)cc3)(CC1)CC2)c1ccccc1` [Compound 115], for which the IC50 in assay [1] (setting [2]) was found to be 99.3 nM.
Consider `COc1cccc(C(=O)NC23CCC(C(=O)N[C@H](C(=O)N(C)CC(C)C)c4ccccc4)(CC2)CC3)c1-c1ccc(C(C)C)cc1` [Compound 116], for which the IC50 in assay [1] (setting [2]) was found to be 247 nM.
As to `CN(Cc1ccc(F)cc1)C(=O)[C@@H](NC(=O)c1ccc2nc(NC(=O)c3ccccc3-c3ccc(C(C)(C)C)cc3)ccc2c1)c1ccccc1` [compound 3, reference compound], the IC50 in assay [1] (Homo sapiens, Table 1, HepG2 cells, read-out: gMTP IC50 ApoB Secretion Assay (Example 2)) was 1.6 nM.

The IC50 is the concentration that gives 50% inhibition.

For the origin of these results see US20080249130A1, “Gut microsomal triglyceride transport protein inhibitors” (Sirtris Pharmaceuticals, Inc., priority 2007, published 2008).
